The test system of one assay is HepG2. Briefly: Cytotoxic activity against HepG2 liver cancer cell line. The assay is classed as functional, cell-based. The conditions noted are these: Homo sapiens.
In another assay the test system is NUGC. Briefly: Cytotoxic activity against NUGC gastric cancer cell line. The assay is classed as functional, cell-based. Conditions: Homo sapiens, Stomach; call rule not given here.
In the next assay the test system is HONE1 cell line. Nature of the assay: Cytotoxic activity against HONE1 nasopharyngeal carcinoma cell line. The class given is functional, cell-based. Conditions: Homo sapiens.
A further assay concerns DLD-1. Briefly: Cytotoxic activity against DLD1 colon cancer cell line. The assay is classed as functional, cell-based. Conditions: Homo sapiens.
The subject of another assay is WI-38. Nature of the assay: Cytotoxic activity against WI38 normal fibroblast cell line; na=Not active. The assay is classed as functional, cell-based, Homo sapiens.
Assay [1] has as its system MCF7. Briefly: Cytotoxic activity against MCF breast cancer cell line; na=Not active. The assay is classed as functional, cell-based, Homo sapiens.
The test system of assay [2] is HA22T cell line. Nature of the assay: Cytotoxic activity against HA22T liver cancer cell line; na=Not active. The class given is functional, cell-based, Homo sapiens.
The subject of assay [3] is MCF7. Nature of the assay: Cytotoxic activity against MCF breast cancer cell line. The class given is functional, cell-based. Conditions: Homo sapiens.
Assay [4] relates to HA22T cell line. Nature of the assay: Cytotoxic activity against HA22T liver cancer cell line. The conditions noted are these: Homo sapiens. The class given is functional, cell-based.

Molecules are shown by their SMILES.

`CCC1C(=O)N(CCCCCOc2ccc(Cl)cc2)/C(=N\C#N)N1c1ccncc1` (configuration not stated): the IC50 with HepG2 was 4320 nM; in the assay on NUGC, 3040 nM; in the assay with HONE1 cell line, 4830 nM; in the assay on DLD-1, 4080 nM; in the assay on WI-38, “Not Active”; with MCF7 [1] it was “Not Active”. For the same compound, the 50% inhibitory concentration (IC50) result with HA22T cell line [2] was “Not Active”.

In the case of `N#C/N=C1\N(CCCCCOc2ccc(Cl)cc2)C(=O)CN1c1ccncc1`, the half-inhibitory concentration (IC50) in the assay with MCF7 [3] is 5360 nM; in the assay on HepG2 it was 4200 nM; in the assay on HA22T cell line [4], 8970 nM; in the assay with NUGC, 2760 nM; in the assay on HONE1 cell line, 3400 nM; with DLD-1, 3800 nM. The concentration for half-maximal inhibition (IC50) result in the assay on WI-38 is “Not Active”.

In the case of `CC1C(=O)N(CCCCCCOc2ccc(Cl)cc2)/C(=N\C#N)N1c1ccncc1` (configuration not stated), the IC50 with MCF7 [3] worked out at 270 nM; in the assay with HepG2 it was 282 nM; in the assay with HA22T cell line [4], 382 nM; with NUGC, 214 nM; with HONE1 cell line, 303 nM; in the assay with DLD-1 it was 333 nM. The IC50 result in the assay with WI-38 was “Not Active”.

As to `N#C/N=C1\N(CCCCCCCOc2ccc(Cl)cc2)C(=O)CCN1c1ccncc1`, the 50% inhibitory concentration (IC50) came out at 6840 nM in the assay on MCF7 [3]; 4000 nM in the assay with HepG2; 7560 nM in the assay on HA22T cell line [4]; 1100 nM with NUGC; 3440 nM in the assay with HONE1 cell line; 3200 nM in the assay with DLD-1. For the same compound, the IC50 entry in the assay with WI-38 is listed as “Not Active”.

As for `N#C/N=C1\N(CCCCCCCOc2ccc(Cl)cc2)C(=O)C(c2ccccc2)N1c1ccncc1` (configuration not stated), the IC50 in the assay with MCF7 [3] is 1170 nM; in the assay on HepG2, 380 nM; in the assay on HA22T cell line [4], 831 nM; with NUGC, 3350 nM; in the assay with HONE1 cell line it was 398 nM; with DLD-1, 290 nM. The IC50 entry with WI-38 is “Not Active”.

As for `CCC1C(=O)N(CCCCCCOc2ccc(Cl)cc2)/C(=N\C#N)N1c1ccncc1` (configuration not stated), the IC50 with MCF7 [3] was determined as 6910 nM; in the assay with HepG2 it was 4350 nM; in the assay with HA22T cell line [4], 5130 nM; in the assay on NUGC it was 406 nM; with HONE1 cell line, 3870 nM; in the assay on DLD-1, 3560 nM. Moreover, the 50% inhibitory concentration (IC50) result in the assay on WI-38 is recorded as “Not Active”.

Consider `CC1C(=O)N(CCCCCCCOc2ccc(Cl)cc2)/C(=N\C#N)N1c1ccncc1` (configuration not stated), for which the IC50 in the assay on MCF7 [3] was found to be 460 nM; in the assay with HepG2 it was 359 nM; with HA22T cell line [4], 688 nM; in the assay with NUGC, 1240 nM; in the assay with HONE1 cell line, 371 nM; in the assay with DLD-1, 370 nM. Moreover, the IC50 result in the assay with WI-38 is reported as “Not Active”.

Take `N#C/N=C1\N(CCCCCCOc2ccc(Cl)cc2)C(=O)CCN1c1ccncc1`: the IC50 was found to be 454 nM in the assay on MCF7 [3]; 344 nM in the assay with HepG2; 3040 nM with HA22T cell line [4]; 288 nM in the assay on NUGC; 577 nM in the assay with HONE1 cell line; 565 nM in the assay with DLD-1. For the same compound, the IC50 entry with WI-38 was “Not Active”.

Consider `N#C/N=C1\N(CCCCCOc2ccc(Cl)cc2)C(=O)CCN1c1ccncc1`, for which the half-maximal inhibitory concentration (IC50) in the assay on MCF7 [3] is 5460 nM; in the assay on HepG2 it was 2830 nM; in the assay on NUGC, 3120 nM; in the assay on HONE1 cell line it was 3450 nM; in the assay with DLD-1 it was 6740 nM; in the assay with WI-38, “Not Active”. Besides, the concentration for half-maximal inhibition (IC50) result with HA22T cell line [2] is given as “Not Active”.

Regarding `CCC1C(=O)N(CCCCCCCOc2ccc(Cl)cc2)/C(=N\C#N)N1c1ccncc1` (configuration not stated), the IC50 worked out at 4540 nM in the assay on MCF7 [3]; 3450 nM with HepG2; 6050 nM in the assay with HA22T cell line [4]; 1280 nM in the assay on NUGC; 3230 nM in the assay with HONE1 cell line; 3530 nM in the assay on DLD-1. Moreover, the half-inhibitory concentration (IC50) entry in the assay with WI-38 is listed as “Not Active”.

As for `N#C/N=C1\N(CCCCCOc2ccc(Cl)cc2)C(=O)C(c2ccccc2)N1c1ccncc1` (configuration not stated), the 50% inhibitory concentration (IC50) in the assay on MCF7 [3] amounted to 1000 nM; with HepG2, 415 nM; in the assay on HA22T cell line [4], 3590 nM; in the assay with NUGC, 3450 nM; in the assay on HONE1 cell line, 373 nM; with DLD-1, 337 nM. Also, the IC50 result in the assay with WI-38 is “Not Active”.

`N#C/N=C1\N(CCCCCCOc2ccc(Cl)cc2)C(=O)C(c2ccccc2)N1c1ccncc1` (configuration not stated): the IC50 in the assay with MCF7 [3] is 1130 nM; in the assay with HepG2 it was 44 nM; in the assay on HA22T cell line [4], 526 nM; with NUGC, 3340 nM; in the assay with HONE1 cell line, 337 nM; with DLD-1, 37 nM. The 50% inhibitory concentration (IC50) entry with WI-38 was “Not Active”.

Consider `N#C/N=C1\N(CCCCCCCOc2ccc(Cl)cc2)C(=O)CN1c1ccncc1`, for which the half-inhibitory concentration (IC50) in the assay on MCF7 [3] is 815 nM; with HepG2 it was 2740 nM; with HA22T cell line [4], 3500 nM; with NUGC it was 926 nM; in the assay on HONE1 cell line, 3240 nM; with DLD-1, 3340 nM. Further, the concentration for half-maximal inhibition (IC50) entry with WI-38 is recorded as “Not Active”.

`N#C/N=C1\N(CCCCCCOc2ccc(Cl)cc2)C(=O)CN1c1ccncc1`: the half-maximal inhibitory concentration (IC50) in the assay with MCF7 [3] amounted to 443 nM; with HepG2, 392 nM; in the assay on HA22T cell line [4], 3860 nM; with NUGC, 386 nM; with HONE1 cell line, 2960 nM; with DLD-1, 3440 nM. Further, in the assay with WI-38, the IC50 entry is given as “Not Active”.

`N#CN=C(NCCCCCCOc1ccc(Cl)cc1)Nc1ccncc1` [CHS-828]: the half-inhibitory concentration (IC50) in the assay on MCF7 [3] was 18 nM; in the assay with HepG2, 1240 nM; in the assay with HA22T cell line [4], 2070 nM; with NUGC, 25 nM; in the assay with HONE1 cell line, 15 nM; with DLD-1, 2320 nM. Also, in the assay on WI-38, the IC50 result is given as “Not Active”.

`CC1C(=O)N(CCCCCOc2ccc(Cl)cc2)/C(=N\C#N)N1c1ccncc1` (configuration not stated): the IC50 in the assay on MCF7 [3] is 9260 nM; with HepG2, 4090 nM; in the assay on NUGC, 1780 nM; with HONE1 cell line, 3680 nM; in the assay with DLD-1, 4110 nM; in the assay with WI-38 it was “Not Active”. For the same compound, the IC50 entry in the assay on HA22T cell line [2] was “Not Active”.

By IC50 is commonly meant the concentration that gives 50% inhibition. A higher IC50 goes with weaker potency.

These data come from ChEMBL document CHEMBL1147588, “Synthesis and in vitro cytotoxicity of 5-substituted 2-cyanoimino-4-imidazodinone and 2-cyanoimino-4-pyrimidinone derivatives” (Bioorg Med Chem Lett, 2004).
